Holding throughout (format): cell-based
The subject of one series is HL-60. The series can be described thus: Cytotoxicity against human HL60 cells by MTT assay.
In another series the test system is SF-295. The series can be described thus: Cytotoxicity against human SF295 cells by MTT assay. A general note: Tetrazolium dyes change colour on reduction, which living cells bring about.
Series [1] can be described thus: Cytotoxicity against human MDA-MB435 cells by MTT assay. The settings on record: mda-mb-435.
Another series relates to HCT-8. The series can be described thus: Cytotoxicity against human HCT8 cells by MTT assay.

Structures are written as SMILES. A value given as a limit tells only on which side of the number the result lay.

Regarding `OC1\C=C/C=C/C=C/CC[C@H]2CN3CCCCCCCCCCCC[C@H]4C[C@H](CN(C1)C4)[C@@H]2CC3` (stereo partly specified), the Activity in the series with HL-60 is 6.9 µg/mL; with SF-295, 8.7 µg/mL; in series [1], 3.1 µg/mL; in the series with HCT-8, over 25 µg/mL.

As for `OC1/C=C\C=C/CCCCCC[C@H]2CN3CC/C=C\CCCCCCC4C[C@@H](CN(C1)C4)[C@H]2CC3` (stereo partly specified) [ARENOSCLERIN D], the Activity in the series on HL-60 was 2.1 µg/mL; in the series with SF-295 it was 5.9 µg/mL; in series [1], 1.2 µg/mL; in the series on HCT-8, 6.2 µg/mL.

Consider `C1=C\CCCCC[C@H]2CN3CC/C=C\CCCCCC[C@@H]4C[C@@H](CN(CC/C=C\C/1)C4)[C@H]2CC3` [HALICLONACYCLAMINE F], for which the Activity was 2.2 µg/mL with HL-60, 4.5 µg/mL with SF-295, 1 µg/mL in series [1] and 8.6 µg/mL in the series on HCT-8.

As for `O[C@H]1/C2=C\C/C=C/C=C\C=C/CCN3CC45CCCCCCCCCCCCN(CC1C4CC23)C5` (stereo partly specified) [MADANGAMINE F], the Activity in the series on HL-60 was 16.7 µg/mL; in the series on SF-295, 19.8 µg/mL; in series [1] it was 16.2 µg/mL; in the series on HCT-8, over 25 µg/mL.

The values above are taken from ChEMBL document CHEMBL1142119, “Cytotoxic alkylpiperidine alkaloids from the Brazilian marine sponge Pachychalina alcaloidifera” (J Nat Prod, 2007).
